Test results reported in ChEMBL document CHEMBL1201862, “PubChem BioAssay data set” (2004).
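How tested: cells in 96-well plates exposed to compound for 48 hours at five concentrations. The concentration for 50% growth inhibition is given as GI50.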 Activity calls are given as the source filed them. No stated cut-off is given here; in the data, active = GI50 up to about 1.1 µM and inactive = higher.

Key:
Test in all cases: NCI tumour cell line growth inhibition, 48 h
[1] = test system: SK-MEL-5
[2] = test system: CAKI-1
[3] = test system: OVCAR-3
[4] = test system: TK-10
[5] = test system: HCC 2998
[6] = test system: RPMI-8226
[7] = test system: NCI/ADR-RES
[8] = test system: MCF7
[9] = test system: SF-268
[10] = test system: MOLT-4
[11] = test system: IGROV-1
[12] = test system: OVCAR-8
[13] = test system: SK-MEL-28
[14] = test system: OVCAR-5
[15] = test system: SNB-19
[16] = test system: HOP-92
[17] = test system: NCI-H23
[18] = test system: SN12C
[19] = test system: MDA-MB-435
[20] = test system: PC-3

Measured: GI50

CC(C)(C)CC(N)=O
inactive: [1] > 100 µM | [2] > 100 µM | [3] > 100 µM | [4] > 100 µM | [5] > 100 µM | [6] > 10 µM | [7] > 100 µM | [8] > 100 µM | [9] > 100 µM | [10] > 10 µM | [11] > 100 µM | [12] > 100 µM | [13] > 100 µM | [14] > 100 µM | [15] > 100 µM | [16] > 100 µM | [17] > 100 µM | [18] > 100 µM | [19] > 100 µM | [20] > 100 µM

CC1=CN(c2ccccc2)S2=C1c1sc3c(c1N2c1ccc(Br)cc1)CCCC3 (stereo not given)
inactive: [1] > 100 µM | [2] > 100 µM | [3] > 100 µM | [4] > 100 µM | [5] > 100 µM | [6] > 100 µM | [7] > 100 µM | [8] > 100 µM | [9] > 100 µM | [10] > 100 µM | [11] > 100 µM | [12] > 100 µM | [13] > 100 µM | [14] 96.8 µM | [15] > 100 µM | [16] > 100 µM | [17] > 100 µM | [18] > 100 µM | [19] > 100 µM | [20] > 100 µM

COc1ccc(C(=O)/C=C2\C(=O)Nc3ccc(Br)cc32)cc1
inactive: [1] 18.4 µM | [2] 8.63 µM | [3] 2.97 µM | [4] 1.68 µM | [5] 4.26 µM | [6] 1.72 µM | [7] 1.71 µM | [8] 6.44 µM | [9] 16.4 µM | [10] 2.41 µM | [11] 2.84 µM | [12] 2.07 µM | [13] 10.5 µM | [14] 19.3 µM | [15] 16.7 µM | [16] 3.24 µM | [17] 4.27 µM | [18] 2.88 µM | [19] 6.75 µM | [20] 6.68 µM

CCOC(=O)c1c(C)c(C)n2c1NC(=O)C2
inactive: [1] > 100 µM | [2] > 59.4 µM | [3] > 64.4 µM | [4] > 55.8 µM | [5] 97.1 µM | [6] > 48 µM | [7] 20.4 µM | [8] 25.2 µM | [9] > 42.8 µM | [10] > 100 µM | [11] > 72.1 µM | [12] > 70.3 µM | [13] > 100 µM | [14] > 100 µM | [15] 55.3 µM | [16] > 91.4 µM | [17] > 43 µM | [18] > 54.3 µM | [19] > 100 µM | [20] 36.8 µM

CCOC(=O)c1sc2nc(SC)nc3c2c1NCN3c1ccc2c(c1)OCO2
inactive: [1] 67.5 µM | [2] 58.1 µM | [3] 10.8 µM | [4] 17.2 µM | [5] 44.7 µM | [6] 24.2 µM | [7] 8.77 µM | [8] 16.7 µM | [9] 3.42 µM | [10] 26.1 µM | [11] 26.1 µM | [12] 5.41 µM | [13] 8.04 µM | [14] 97.5 µM | [15] 11.4 µM | [16] 12.5 µM | [17] 41.9 µM | [18] 39.4 µM | [19] 14.8 µM | [20] 14.3 µM

C[C@@H](C1CC[C@H]2[C@@H]3[C@@H]4O[C@@H]4[C@@]4(O)CC=CC(=O)[C@]4(C)[C@H]3C[C@H](O)[C@]12C)[C@H]1C[C@]2(C)O[C@]2(C)C(=O)O1 (stereo not given in full)
inactive: [1] > 100 µM | [2] > 100 µM | [3] > 100 µM | [4] > 100 µM | [5] > 100 µM | [6] > 100 µM | [7] > 100 µM | [8] > 100 µM | [9] > 100 µM | [10] > 100 µM | [11] > 100 µM | [12] > 100 µM | [13] > 100 µM | [14] > 100 µM | [15] > 100 µM | [16] > 100 µM | [17] > 100 µM | [18] > 100 µM | [19] > 100 µM | [20] > 100 µM
